Experimental data: patent publication EP1996603B1, “LIPID A ANTAGONISTS WITH ANTI-SEPTIC SHOCK, ANTI-INFLAMMATORY, ANTI-ISCHEMIA AND ANALGESIC ACTIVITY” (Università Degli Studi Di Milano - Bicocca, priority 2006, dated 2007)
Entries after “also recorded” stand apart in the source; their conditions may differ.

System: BMΦ, BMDC and D1 cells
Test: Lipid A-induced TNFα production in macrophages and dendritic cells (ELISA)
Assay type: cell-based, Mouse
Experimental: BMΦ and DC were derived from bone marrow cells and divided in two separate cultures. For DC preparation bone marrow cells were cultured in complete IMDM supplemented with 10% supernatant of GM-CSF-transduced B16 tumor cells [R. Soiffer, T. Lynch, M. Mihm, K. Jung, C. Rhuda, J. C. Schmollinger, F. S. Hodi, L. Liebster, P. Lam, S. Mentzer, S. Singer, K. K. Tanabe, A. B. Cosimi, R. Duda, A. Sober, A. Bhan, J. Daley, D. Neuberg, G. Parry, J. Rokovich, L. Richards, J. Drayer, A. Berns, S. Clift, L. K. Cohen, R. C. Mulligan, G. Dranoff, Proc. Natl. Acad. Sci. U S A. 1998, 95(22), 13141-13146]. Fresh medium was added every 2 d. After 7-10 d of culture, cells were analyzed for CD11c expression and used in assays when 90% were CD11c positive. For BMΦ preparation bone marrow cells were cultured in complete IMDM supplemented with 10% supernatant of M-CSF-transduced NIH3T3 cells. Also in this case, fresh medium was added every 2 d. After 7-10 d of culture, cells were analyzed for Mac1 expression and used in assays when at least 90% were Mac1 positive. D1 cells were cultured in complete IMDM supplemented with 10% supernatant of GM-CSF-transduced B16 tumor cells.
D1 cells, BMDC and MΦ were plated in 48 well plates at a concentration of 200000 cells/well in 200µL of medium. One or two hours after plating they were treated with different amounts of compounds Ic and Id for 30 min and then stimulated with Lipid A from Escherichia coli (F583, Rd mutant Sigma, 0.5µM) for 18 h.
Given the pivotal role of early-activated DC and MΦ in directing inflammatory reactions, compounds Ia, Ic and Id were tested for their ability to antagonize the stimulatory activity of lipid A on bone marrow derived macrophages (BMΦ) and DC (BMDC) by interfering with their capacity to induce TNFα production. As source of DC, D1 cells, a long term growth factor (GM-CSF)-dependent DC line [C. Winzler et al. J. Exp. Med. 1997, 185, 317-327] were also used. BMΦ, BMDC and D1 cells were stimulated with lipid A (0.5 µM) after a pre-exposure to compounds Ia, Ic and Id and the amount of TNFα released in the supernatant was measured by ELISA.

In the case of CCCCCCCCCCCCCCO[C@H]1[C@@H](OC)O[C@H](C[N+](C)(C)C2CCCC2)[C@@H](O)[C@@H]1OCCCCCCCCCCCCCC [Compound Id, methyl 6-deoxy-6-N,N',N"-dimethylcyclopentylammonium-2,3-di-O-tetradecyl-α-D-glucopyranoside], the “direct inflammatory function (stimulating cytokines production)” value (cells treated with compound alone, without lipid A) is reported as “did not show any direct inflammatory function”, the “relative potency as inhibitor of lipid A” value (comparison between compounds Ia, Ic and Id) is reported as “more potent than Ic” and the TNFα production (stimulation with lipid A (0.5 µM) after pre-exposure to compound, TNFα released in the supernatant measured by ELISA, BMΦ, BMDC and D1 cells) is reported as “interfered with lipid A's action in a dose-dependent manner; also recorded: lower activity; also recorded: inhibited”.
